Biological target: Sodium-dependent dopamine transporter (Rattus norvegicus, UniProt P23977)
Experiment: Binding affinity against dopamine transporter in rat caudate putamen tissue using [3H]WIN-35428 radioligand.
Assay type: tissue-based

Sequence of Sodium-dependent dopamine transporter (P23977 whole entry): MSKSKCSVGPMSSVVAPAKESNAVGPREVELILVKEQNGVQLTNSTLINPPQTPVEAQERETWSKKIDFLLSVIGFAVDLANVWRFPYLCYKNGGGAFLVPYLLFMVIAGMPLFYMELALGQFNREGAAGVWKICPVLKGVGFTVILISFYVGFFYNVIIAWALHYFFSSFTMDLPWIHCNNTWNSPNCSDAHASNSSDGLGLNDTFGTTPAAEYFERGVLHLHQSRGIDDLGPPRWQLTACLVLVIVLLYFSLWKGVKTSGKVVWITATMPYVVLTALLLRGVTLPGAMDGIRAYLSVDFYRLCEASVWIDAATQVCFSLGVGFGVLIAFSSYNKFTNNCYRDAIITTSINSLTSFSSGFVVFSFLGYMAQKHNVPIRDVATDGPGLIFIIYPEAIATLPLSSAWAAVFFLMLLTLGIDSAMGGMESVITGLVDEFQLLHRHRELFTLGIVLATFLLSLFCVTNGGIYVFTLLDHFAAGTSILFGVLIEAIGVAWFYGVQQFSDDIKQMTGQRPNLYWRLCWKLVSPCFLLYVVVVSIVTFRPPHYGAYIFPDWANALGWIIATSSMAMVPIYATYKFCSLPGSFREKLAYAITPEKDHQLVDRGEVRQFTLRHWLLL

Point of comparison: `CN1C2CCCC1C(C(=O)c1ccccc1)C(c1ccccc1)C2` (stereo in doubt; 13), Ki 3.97 µM. Against it:
- CO/C(O)=C1/C(=O)CCC2CCCC1N2C (centres undefined) — higher, > 100 µM
- COC(=O)[C@@H]1C2CC[C@H](C[C@@H]1c1ccccc1)N2C — 13-fold lower, 0.31 µM
- CN1C2CCCC1C(C(=O)c1ccccc1)C(c1ccccc1)C2 (stereo in doubt; 14) — 2.1-fold lower, 1.91 µM
